In PubChem BioAssay (NCI):
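Five concentrations, 48 hours, 96-well plates. The concentration for full growth arrest is given as TGI.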 Where a SMILES comes first, the peptide text is derived from it. The star is where a group is joined. Bn = c1ccc(C*)cc1

Tests used:
Assay in all cases: NCI anticancer screen, dose series, 48 h
U251 CNS = system: U251 CNS
MDA-MB-435 = system: MDA-MB-435
UACC-62 melanoma = system: UACC-62 melanoma
A498 renal = system: A498 renal
OVCAR-3 ovarian = system: OVCAR-3 ovarian
DU-145 prostate = system: DU-145 prostate
SR leukemia = system: SR leukemia
IGROV1 ovarian = system: IGROV1 ovarian
K-562 leukemia = system: K-562 leukemia
MDA-MB-231 breast = system: MDA-MB-231 breast

In the case of `COC(=O)[C@H](Cc1ccccc1)NC(=O)c1ccc(CNC(=O)/C=C/c2cccc(Oc3ccccc3)c2)cc1`, the TGI (U251 CNS) is reported as over 100 µM, the TGI (MDA-MB-435) is reported as 28.3 µM and the TGI (UACC-62 melanoma) is reported as 24 µM. The TGI (A498 renal) was 51.7 µM, the TGI (OVCAR-3 ovarian) was 40.4 µM and the TGI (DU-145 prostate) was over 100 µM. For the same compound, the TGI (SR leukemia) was over 100 µM, the TGI (IGROV1 ovarian) was 42.6 µM and the TGI (K-562 leukemia) was over 100 µM. The TGI (MDA-MB-231 breast) was 48.6 µM.

With `COC(=O)C(CC(C)C)NC(=O)C(N)Cc1ccc(OCc2ccccc2)cc1` (stereo not given) (H-Tyr(Bn)-Leu-OMe; configuration not given here) the TGI (U251 CNS) was over 10 µM, the TGI (MDA-MB-435) was over 10 µM and the TGI (UACC-62 melanoma) was over 10 µM. For the same compound, the TGI (A498 renal) was over 10 µM, the TGI (OVCAR-3 ovarian) was over 10 µM and the TGI (DU-145 prostate) was over 10 µM. The TGI (SR leukemia) was over 10 µM, the TGI (IGROV1 ovarian) was over 10 µM and the TGI (K-562 leukemia) was over 10 µM. For the same compound, the TGI (MDA-MB-231 breast) was over 10 µM.

Compound `O=C1CC(Sc2nc3ccc(I)cc3c(=O)n2Cc2ccccc2)C(=O)NN1` (stereo not given) has a TGI (U251 CNS) of 29.4 µM, a TGI (MDA-MB-435) of 33.9 µM and a TGI (UACC-62 melanoma) of 29.3 µM. The TGI (A498 renal) was 29.7 µM, the TGI (OVCAR-3 ovarian) was 31.2 µM and the TGI (DU-145 prostate) was 34.8 µM. For the same compound, the TGI (SR leukemia) was 24 µM, the TGI (IGROV1 ovarian) was 25.2 µM and the TGI (K-562 leukemia) was 50.5 µM. It also gave a TGI (MDA-MB-231 breast) of 29.3 µM.

In the case of `Nc1nc(Nc2ccccc2)sc1C(=O)c1c[nH]c2ccccc12`, the TGI (U251 CNS) is reported as 23.6 µM, the TGI (MDA-MB-435) is reported as 23.2 µM and the TGI (UACC-62 melanoma) is reported as 28.9 µM. It also gave a TGI (A498 renal) of 30.6 µM, a TGI (OVCAR-3 ovarian) of 26.6 µM and a TGI (DU-145 prostate) of 22.5 µM. It also gave a TGI (SR leukemia) of 5.12 µM, a TGI (IGROV1 ovarian) of 31.2 µM and a TGI (K-562 leukemia) of 56.7 µM. For the same compound, the TGI (MDA-MB-231 breast) was 32.3 µM.

With `COc1c(O)c(O)cc2c1-c1ccc(OC)c(=O)cc1C(NC(C)=O)CC2` (stereo not given) the TGI (U251 CNS) was 28.9 µM, the TGI (MDA-MB-435) was 3.75 µM and the TGI (UACC-62 melanoma) was 24.8 µM. The TGI (A498 renal) was 89 µM, the TGI (OVCAR-3 ovarian) was 5.77 µM and the TGI (DU-145 prostate) was 40.6 µM. The TGI (SR leukemia) was over 100 µM, the TGI (IGROV1 ovarian) was over 100 µM and the TGI (K-562 leukemia) was 19.2 µM. For the same compound, the TGI (MDA-MB-231 breast) was over 59.4 µM.

Work on `O=C(CCCN1CCC2(CC1)C(=NC1CCCCC1)NC(=O)N2c1ccccc1)c1ccc(F)cc1` yielded a TGI (U251 CNS) of 81.1 µM, a TGI (MDA-MB-435) of 38.8 µM and a TGI (UACC-62 melanoma) of 46.5 µM. It also gave a TGI (A498 renal) of 34.1 µM, a TGI (OVCAR-3 ovarian) of 31.6 µM and a TGI (DU-145 prostate) of over 100 µM. For the same compound, the TGI (SR leukemia) was 46.1 µM, the TGI (IGROV1 ovarian) was 62.2 µM and the TGI (K-562 leukemia) was over 100 µM. The TGI (MDA-MB-231 breast) was 26.1 µM.

`Cn1ccnc1Sc1ccc(C=Nc2ccc3nc(SCC(=O)NC4CCCCC4)sc3c2)cc1[N+](=O)[O-]` showed a TGI (U251 CNS) of 33.9 µM, a TGI (MDA-MB-435) of over 100 µM and a TGI (UACC-62 melanoma) of over 100 µM. It also gave a TGI (A498 renal) of 48.2 µM, a TGI (OVCAR-3 ovarian) of over 100 µM and a TGI (DU-145 prostate) of over 100 µM. The TGI (SR leukemia) was over 100 µM, the TGI (IGROV1 ovarian) was over 100 µM and the TGI (K-562 leukemia) was over 100 µM. The TGI (MDA-MB-231 breast) was 99.4 µM.

Compound `N#CCCN(CCC#N)c1ccc(/C=C2\SC(=S)NC2=O)cc1Br` has a TGI (U251 CNS) of 35.1 µM, a TGI (MDA-MB-435) of over 100 µM and a TGI (UACC-62 melanoma) of over 100 µM. For the same compound, the TGI (A498 renal) was over 100 µM, the TGI (OVCAR-3 ovarian) was over 100 µM and the TGI (DU-145 prostate) was over 100 µM. The TGI (SR leukemia) was over 100 µM, the TGI (IGROV1 ovarian) was over 100 µM and the TGI (K-562 leukemia) was over 100 µM. For the same compound, the TGI (MDA-MB-231 breast) was 79.6 µM.

In the case of `C=C1C(=O)OC2/C=C(/C)C3(O)OC(C)(CC(OC(=O)C(C)C)C12)CC3OC(C)=O` (stereo not given), the TGI (U251 CNS) is reported as 38.2 µM, the TGI (MDA-MB-435) is reported as over 43.8 µM and the TGI (UACC-62 melanoma) is reported as 31.6 µM. For the same compound, the TGI (A498 renal) was 15.5 µM, the TGI (OVCAR-3 ovarian) was 29.8 µM and the TGI (DU-145 prostate) was over 69.6 µM. For the same compound, the TGI (SR leukemia) was over 31.5 µM, the TGI (IGROV1 ovarian) was 36.6 µM and the TGI (K-562 leukemia) was over 100 µM. It also gave a TGI (MDA-MB-231 breast) of over 42.6 µM.

`O=C(O)c1ccc2c(c1)CC1(C2)Cc2cc3c(cc2C1=O)CCC3` (stereo not given) showed a TGI (U251 CNS) of over 100 µM, a TGI (MDA-MB-435) of over 100 µM and a TGI (UACC-62 melanoma) of over 100 µM. The TGI (A498 renal) was over 100 µM, the TGI (OVCAR-3 ovarian) was over 100 µM and the TGI (DU-145 prostate) was over 100 µM. The TGI (SR leukemia) was over 100 µM, the TGI (IGROV1 ovarian) was over 100 µM and the TGI (K-562 leukemia) was over 100 µM. The TGI (MDA-MB-231 breast) was over 100 µM.

With `CC/C(Cl)=N\OC(=O)Nc1ccc(F)c([N+](=O)[O-])c1` the TGI (U251 CNS) was 46.3 µM, the TGI (MDA-MB-435) was 33.5 µM and the TGI (UACC-62 melanoma) was 35.8 µM. For the same compound, the TGI (A498 renal) was 39.4 µM, the TGI (OVCAR-3 ovarian) was 18.3 µM and the TGI (DU-145 prostate) was 36.9 µM. The TGI (SR leukemia) was over 68.6 µM, the TGI (IGROV1 ovarian) was 33.8 µM and the TGI (K-562 leukemia) was over 24.5 µM. The TGI (MDA-MB-231 breast) was 34.9 µM.

`CC1C(c2ccc3c(c2)OCO3)c2cc3c(cc2OC1N1CCOCC1)OCO3` (stereo not given) showed a TGI (U251 CNS) of over 83.8 µM, a TGI (MDA-MB-435) of 27.6 µM and a TGI (UACC-62 melanoma) of 69.5 µM. The TGI (A498 renal) was 65.6 µM, the TGI (OVCAR-3 ovarian) was over 93.8 µM and the TGI (DU-145 prostate) was over 100 µM. For the same compound, the TGI (SR leukemia) was over 80.2 µM, the TGI (IGROV1 ovarian) was over 100 µM and the TGI (K-562 leukemia) was 67.7 µM. It also gave a TGI (MDA-MB-231 breast) of over 100 µM.

`OC1(c2ccc(Cl)cc2)c2ccc(CN3CCCC3)cc2C2=NCCN21` (stereo not given) gave a TGI (U251 CNS) of 27.2 µM, a TGI (MDA-MB-435) of 23.5 µM and a TGI (UACC-62 melanoma) of 28.1 µM. The TGI (A498 renal) was 25.8 µM, the TGI (OVCAR-3 ovarian) was 31.7 µM and the TGI (DU-145 prostate) was 32.2 µM. The TGI (SR leukemia) was 33.1 µM, the TGI (IGROV1 ovarian) was 28.7 µM and the TGI (K-562 leukemia) was 45.2 µM. It also gave a TGI (MDA-MB-231 breast) of 27.3 µM.

Compound `O=C(CCc1cccc(O)c1)NCCCNC(=O)CCc1cccc(O)c1` has a TGI (U251 CNS) of over 100 µM, a TGI (MDA-MB-435) of over 100 µM and a TGI (UACC-62 melanoma) of over 100 µM. The TGI (A498 renal) was over 100 µM, the TGI (OVCAR-3 ovarian) was over 100 µM and the TGI (DU-145 prostate) was over 100 µM. The TGI (SR leukemia) was over 100 µM, the TGI (IGROV1 ovarian) was over 100 µM and the TGI (K-562 leukemia) was over 100 µM. It also gave a TGI (MDA-MB-231 breast) of over 100 µM.

Compound `CCN(CC)CCNc1ccc2ncn3c4cc(OC)c(OC)c(=O)c4c(O)c1c23` has a TGI (U251 CNS) of 28 µM, a TGI (MDA-MB-435) of 26.9 µM and a TGI (UACC-62 melanoma) of 36.6 µM. The TGI (A498 renal) was 29.5 µM, the TGI (OVCAR-3 ovarian) was 31.7 µM and the TGI (DU-145 prostate) was 23.5 µM. It also gave a TGI (SR leukemia) of 16.2 µM, a TGI (IGROV1 ovarian) of 35.6 µM and a TGI (K-562 leukemia) of 50.7 µM. The TGI (MDA-MB-231 breast) was 20.7 µM.

Compound `O=C1CS(=O)C23c4cc5ccccc5n4CCC2CCCN13` (stereo not given) has a TGI (U251 CNS) of over 100 µM, a TGI (MDA-MB-435) of over 100 µM and a TGI (UACC-62 melanoma) of over 100 µM. The TGI (A498 renal) was over 100 µM, the TGI (OVCAR-3 ovarian) was over 100 µM and the TGI (DU-145 prostate) was over 100 µM. For the same compound, the TGI (SR leukemia) was over 100 µM, the TGI (IGROV1 ovarian) was over 100 µM and the TGI (K-562 leukemia) was over 100 µM. The TGI (MDA-MB-231 breast) was over 100 µM.

With `COc1ccc(/C=N/N2C(=O)c3c(N)c(C#N)c(-c4ccccc4)c(-c4ccccc4)c3C2=O)cc1` the TGI (U251 CNS) was over 100 µM, the TGI (MDA-MB-435) was over 100 µM and the TGI (UACC-62 melanoma) was over 100 µM. The TGI (A498 renal) was over 100 µM, the TGI (OVCAR-3 ovarian) was over 100 µM and the TGI (DU-145 prostate) was over 100 µM. The TGI (SR leukemia) was over 100 µM, the TGI (IGROV1 ovarian) was over 100 µM and the TGI (K-562 leukemia) was over 100 µM. It also gave a TGI (MDA-MB-231 breast) of over 100 µM.

In the case of `CCc1nc2cc3cccnc3c(Cl)c2[nH]c1=O`, the TGI (U251 CNS) is reported as over 100 µM, the TGI (MDA-MB-435) is reported as over 100 µM and the TGI (UACC-62 melanoma) is reported as over 100 µM. The TGI (A498 renal) was over 100 µM, the TGI (OVCAR-3 ovarian) was over 100 µM and the TGI (DU-145 prostate) was over 100 µM. It also gave a TGI (SR leukemia) of over 100 µM, a TGI (IGROV1 ovarian) of over 100 µM and a TGI (K-562 leukemia) of over 100 µM. For the same compound, the TGI (MDA-MB-231 breast) was over 100 µM.
